Experimental data reported in patent US8889370B2, “Method of determining inhibitors of coagulation” (Siemens Healthcare Diagnostics Products GmbH, priority 2010, dated 2014).
Like-named read-outs stand apart in the source and are kept apart here.

Target: T1, factor Xa (Homo sapiens, UniProt P00742)
T1 construct: an F Xa reagent consisting of a lyophilized plasma fraction containing factor Xa; purchased Siemens Healthcare Diagnostics (Berichrom heparin assay, F Xa reagent); host or cells: plasma fraction
Assay: Determination of the F Xa binding constant (Ki) of peptide aldehyde ligands, chromogenic assay with Berichrom heparin assay reagents, Dixon plot
Format: biochemical
Experimental: The kinetic data of the peptide aldehyde ligands were determined in chromogenic assay formats by measuring the rate of hydrolysis of chromogenic peptide substrates which compete with the peptide aldehyde ligands for binding to the active site of the particular enzyme, at various substrate concentrations and peptide aldehyde-ligand concentrations. The binding constant (Ki) was determined by a known method (Dixon, M., 1953, Biochem J, 55, 170-171).
The F Xa binding constant was determined using the reagents of the Berichrom® heparin assay from Siemens Healthcare Diagnostics. The Berichrom® heparin assay consists of: an F Xa reagent consisting of a lyophilized plasma fraction containing factor Xa, and additives such as Tris, NaCl, EDTA and preservatives, a chromogenic substrate reagent (Z-D-Leu-Gly-Arg-ANBA-methyl-amide), a dilution reagent for reconstitution, and a dextran sulfate reagent consisting of lyophilized dextran sulfate.
After reconstitution in 10 ml of dilution reagent, the dextran sulfate concentration is 0.02 g/l. The F Xa reagent is reconstituted with the reconstituted dextran sulfate reagent. The substrate reagent, after constitution with 2 ml of deionized water, contains 4 mmol/l Z-D-Leu-Gly-Arg-ANBA-methyl-amide. Dilutions of the substrate reagent were prepared with deionized water. The peptide aldehyde ligands prepared according to example 1 were dissolved in water and used as sample. The assays were carried out automatically in a BCS® XP coagulation analyzer (Siemens Healthcare Diagnostics, Marburg, Germany).
A reaction mix was mixed together as follows:
15 μl of sample (peptide aldehyde ligand B-r-G-R—H or B-f-P—R—H), […]
30 μl of substrate reagent (Z-D-Leu-Gly-Arg-ANBA-methyl-amide).
The reaction rate in mE/min was determined on the basis of the increase in optical density of the reaction mix at a wavelength of 405 nm. For this, the optical density of the reaction mixes was determined in a time interval from 10 to 70 seconds.

T1 sequence (P00742 235-488 limits assumed): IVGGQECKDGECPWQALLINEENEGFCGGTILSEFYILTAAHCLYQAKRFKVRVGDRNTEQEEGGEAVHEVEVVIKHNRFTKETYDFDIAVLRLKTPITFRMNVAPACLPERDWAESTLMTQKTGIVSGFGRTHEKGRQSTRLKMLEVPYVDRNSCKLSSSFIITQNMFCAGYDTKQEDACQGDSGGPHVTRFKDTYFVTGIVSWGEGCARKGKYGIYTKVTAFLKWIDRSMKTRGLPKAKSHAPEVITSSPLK
T1 sequence (P00742 41-179 partner limits assumed): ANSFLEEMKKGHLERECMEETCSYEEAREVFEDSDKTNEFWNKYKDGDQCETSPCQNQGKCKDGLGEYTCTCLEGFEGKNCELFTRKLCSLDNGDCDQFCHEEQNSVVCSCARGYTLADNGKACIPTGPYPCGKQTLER

## N=C(N)NCCC[C@@H](C=O)NC(=O)CNC(=O)[C@@H](CCCNC(=N)N)NC(=O)CCC(=O)NCCCOCCOCCOCCCNC(=O)CCCC[C@@H]1SC[C@@H]2NC(=O)N[C@@H]21 [B-r-G-R-H, biotinyl-Ttds-D-Arg-Gly-Arg-H]
CB-r-G-R-H 0.20380 μM, Csubstrate = 0.5 mM
  1/Reaction rate: 5.521 min/E
CB-r-G-R-H 0.20380 μM, Csubstrate = 2 mM
  1/Reaction rate: 1.457 min/E
CB-r-G-R-H 0.20380 μM, Csubstrate = 4 mM
  1/Reaction rate: 0.8262 min/E
CB-r-G-R-H 0.32609 μM, Csubstrate = 0.5 mM
  1/Reaction rate: 6.13 min/E
CB-r-G-R-H 0.32609 μM, Csubstrate = 2 mM
  1/Reaction rate: 1.612 min/E
CB-r-G-R-H 0.32609 μM, Csubstrate = 4 mM
  1/Reaction rate: 0.9061 min/E
CB-r-G-R-H 0.40761 μM, Csubstrate = 0.5 mM
  1/Reaction rate: 6.408 min/E
CB-r-G-R-H 0.40761 μM, Csubstrate = 2 mM
  1/Reaction rate: 1.659 min/E
CB-r-G-R-H 0.40761 μM, Csubstrate = 4 mM
  1/Reaction rate: 0.9259 min/E
CB-r-G-R-H 0.65217 μM, Csubstrate = 0.5 mM
  1/Reaction rate: 7.754 min/E
CB-r-G-R-H 0.65217 μM, Csubstrate = 2 mM
  1/Reaction rate: 1.975 min/E
CB-r-G-R-H 0.65217 μM, Csubstrate = 4 mM
  1/Reaction rate: 1.099 min/E
CB-r-G-R-H 0.81522 μM, Csubstrate = 0.5 mM
  1/Reaction rate: 8.403 min/E
CB-r-G-R-H 0.81522 μM, Csubstrate = 2 mM
  1/Reaction rate: 2.115 min/E
CB-r-G-R-H 0.81522 μM, Csubstrate = 4 mM
  1/Reaction rate: 1.177 min/E
CB-r-G-R-H 1.30435 μM, Csubstrate = 0.5 mM
  1/Reaction rate: 12.05 min/E
CB-r-G-R-H 1.30435 μM, Csubstrate = 2 mM
  1/Reaction rate: 2.802 min/E
CB-r-G-R-H 1.30435 μM, Csubstrate = 4 mM
  1/Reaction rate: 1.476 min/E
CB-r-G-R-H 1.63043 μM, Csubstrate = 0.5 mM
  1/Reaction rate: 13.97 min/E
CB-r-G-R-H 1.63043 μM, Csubstrate = 2 mM
  1/Reaction rate: 3.147 min/E
CB-r-G-R-H 1.63043 μM, Csubstrate = 4 mM
  1/Reaction rate: 1.679 min/E
CB-r-G-R-H 2.60870 μM, Csubstrate = 0.5 mM
  1/Reaction rate: 20.14 min/E
CB-r-G-R-H 2.60870 μM, Csubstrate = 2 mM
  1/Reaction rate: 4.627 min/E
CB-r-G-R-H 2.60870 μM, Csubstrate = 4 mM
  1/Reaction rate: 2.274 min/E
CB-r-G-R-H 3.26087 μM, Csubstrate = 0.5 mM
  1/Reaction rate: 26.42 min/E
CB-r-G-R-H 3.26087 μM, Csubstrate = 2 mM
  1/Reaction rate: 5.52 min/E
CB-r-G-R-H 3.26087 μM, Csubstrate = 4 mM
  1/Reaction rate: 2.728 min/E
CB-r-G-R-H 4.89130 μM, Csubstrate = 0.5 mM
  1/Reaction rate: 37.79 min/E
CB-r-G-R-H 4.89130 μM, Csubstrate = 2 mM
  1/Reaction rate: 8.244 min/E
CB-r-G-R-H 4.89130 μM, Csubstrate = 4 mM
  1/Reaction rate: 3.745 min/E
CB-r-G-R-H 6.52174 μM, Csubstrate = 0.5 mM
  1/Reaction rate: 52.69 min/E
CB-r-G-R-H 6.52174 μM, Csubstrate = 2 mM
  1/Reaction rate: 10.45 min/E
CB-r-G-R-H 6.52174 μM, Csubstrate = 4 mM
  1/Reaction rate: 4.819 min/E
CB-r-G-R-H 8.15217 μM, Csubstrate = 0.5 mM
  1/Reaction rate: 62.32 min/E
CB-r-G-R-H 8.15217 μM, Csubstrate = 2 mM
  1/Reaction rate: 12.99 min/E
CB-r-G-R-H 8.15217 μM, Csubstrate = 4 mM
  1/Reaction rate: 5.669 min/E
CB-r-G-R-H 13.04348 μM, Csubstrate = 0.5 mM
  1/Reaction rate: 98.11 min/E
CB-r-G-R-H 13.04348 μM, Csubstrate = 2 mM
  1/Reaction rate: 19.61 min/E
CB-r-G-R-H 13.04348 μM, Csubstrate = 4 mM
  1/Reaction rate: 8.47 min/E
Csubstrate 0.5 mM
  Intersect of regression curve 1/reaction rate vs ligand concentration: 2.8743 min/E
  Slope of regression curve 1/reaction rate vs ligand concentration: 7.3110 min/E μM
Csubstrate 2 mM
  Intersect of regression curve 1/reaction rate vs ligand concentration: 1.0169 min/E
  Slope of regression curve 1/reaction rate vs ligand concentration: 1.4375 min/E μM
Csubstrate 4 mM
  Intersect of regression curve 1/reaction rate vs ligand concentration: 0.7187 min/E
  Slope of regression curve 1/reaction rate vs ligand concentration: 0.6037 min/E μM
Intersection of regression curves Csubstrate 2 and 0.5 mM, read-out: Ki2&3 F Xa binding constant
  Ki: 0.316 µM
Intersection of regression curves Csubstrate 4 and 0.5 mM, read-out: Ki1&3 F Xa binding constant
  Ki: 0.321 µM
Intersection of regression curves Csubstrate 4 and 2 mM, read-out: Ki1&2 F Xa binding constant
  Ki: 0.358 µM
Intersections of regression curves not on the x axis
  binding of the peptide aldehyde with F Xa (reversible or irreversible): reversible
read-out: average F Xa binding constant KiM
  Ki: 0.332 µM
